In patent US4268630A, “Microbiological production of ketones from C3 -C6 alkanes” (priority 1979, dated 1981):
“Also recorded” adds a separate entry of the source. Read-outs that look alike come from different tables or passages of the source.

What was measured:
[1] = tested on: secondary alcohol dehydrogenase (SADH); assay: Activity of purified secondary alcohol dehydrogenase (inhibition, substrate specificity, Km); assay type: biochemical, Pseudomonas sp. ATCC 21439; conditions: for % inhibition of SADH activity: each inhibitor at a final concentration of 1 mM, spectrofluorometric; for relative percent rate of oxidation: 2-butanol = 100%
Protocol: Secondary alcohol dehydrogenase (SADH) from an obligate methanol utilizer, Pseudomonas sp. ATCC 21439 was purified as follows. […] 0.05 M sodium phosphate buffer, pH 7.0 with 0.5 mM dithiothretol (buffer A) and were disrupted sonically (5×1 min.). The crude extract was separated by centrifugation. The crude extract was heat-treated at 50° C. in a water bath for 10 minutes. The resulting precipitate was removed by centrifugation. To the supernatant solution, 25 ml of protamine sulfate solution (2% solution in 0.1 M Tris base) was added dropwise with continuous stirring. After standing for 30 minutes, the extract was centrifuged. The supernatant solution was fractionated with solid ammonium sulfate. The material precipitating between 30 and 60% saturation was collected and was dialized overnight against buffer A. The The dialized material was applied to a DEAE-cellulose column (3 cm by 35 cm) that had been equilibrated with buffer A. The secondary alcohol dehydrogenase activity was eluted in the void volume. This DEAE-cellulose eluate was concentrated by ammonium sulfate fractionation. Material precipitating between 30 and 50% ammonium sulfate saturation was collected by centrifugation and dialyzed overnight against A. This fraction was further washed and filtered through an Amicon unit with XM 50 membrane. The concentrated fraction (6 ml) inside the Amicon unit was applied to an Affi-Gel Blue column (0.8 cm×18 cm) which had been equilibrated with buffer A for affinity chromatography. The column was washed overnight with buffer A (0.18 ml./min.) and then was eluted with buffer A containing 5 mM NAD. Each 1 ml. fraction was collected.
The purified secondary alcohol dehydrogenase enzyme (SADH) may be used directly for converting C3 -C6 secondary alcohols to the corresponding methyl ketones by the procedures described above; however, a source of NAD^+ must be added to the reaction medium. One can determine the NAD-linked secondary alcohol dehydrogenase activity with a fluorescence spectrophotometer (Perkin Elmer, Model MPF 44A) by following the formation of reduced NAD (Ex 340 nm, Em 460 nm). The assay system (3 ml.) will typically contain: sodium phosphate buffer pH 7.0, 150 μmol; NAD 1.0 μmol; a given amount of enzyme preparation; and 20 μmol secondary alcohol. The reaction is started by the addition of secondary alcohol. One unit of SADH enzyme activity represents the reduction of one nmole NAD per minute.
The effect of metal-chelating agents and thioreagents on the activity of the purified SADH enzyme were studied. […] The possibility of ethanol or n-propanol as an inhibitor was studied.

[2] = tested on: cell suspensions of C1-utilizers; assay: Production of 2-butanone from 2-butanol / sec-alcohol oxidation by cell suspensions of the strains tested; assay type: cell-based; conditions: for inhibition of production of 2-butanone from 2-butanol (in words): cell suspensions of the strains tested
From the text: The substrate specificity for the oxidation of C3 -C6 secondary alcohols by the strains of C1 -utilizers was studied.

[3] = tested on: secondary alcohol dehydrogenase; assay: Activity of purified yeast-derived secondary alcohol dehydrogenase; assay type: biochemical, Pichia sp. NRRL Y-11,328; conditions: for inhibition of secondary alcohol dehydrogenase activity (in words): primary alcohols tested at 10^-3 M
[4] = tested on: cell-free particulate fraction of methane-grown methylotrophs; assay: Conversion of n-alkanes to sec. alcohols by cell-free particulate fractions: inhibitors and electron donors; assay type: biochemical
From the text: The conditions for preparing the cell suspensions or the cell-free particulate fractions from methane-grown methylotroph microorganisms is the same as described above.

[5] = tested on: Methylosinus trichosporium OB3b NRRL B-11,196; assay: Conversion of n-alkanes to oxidation products by cell suspensions; assay type: cell-based; conditions: methane-grown cell suspension, pH 7.0
Protocol: (§1) ^(a) Cell-suspensions of methanegrown methylotroph microorganisms
(§2) indicated in 0.15 M phosphate buffer, pH 7.0 incubated in the alkanes as
(§3) indicated at 3° C. The oxidation products were determined by g.l.c

[6] = tested on: Methylococcus capsulatus CRL M1 NRRL B-11,219; assay: as above; assay type: cell-based; conditions: methane-grown cell suspension, pH 7.0
Protocol: as §1, §2, §3

[7] = tested on: cell-free secondary alcohol dehydrogenase (SADH) system; assay: Cofactor requirement of cell-free soluble extracts oxidizing 2-butanol; assay type: biochemical
Protocol: To prepare the cell-free secondary alcohol dehydrogenase (SADH) system, the washed cells were disrupted with a Wave Energy Ultrasonic Oscillator, Model W201 (Wave Energy System, Inc., Newtown, Pa.) and centrifuged at 20,000× g. for 30 minutes. […] The enzyme activity was measured with a fluorescence spectrophotometer (Perkin Elmer, Model MPF 44A) by following the formation of reduced NAD (EX 340 nm, Em 460 nm). The formation of reduced NAD was also followed with an absorption spectrophotometer at 340 nm. The assay system (3 ml.) contained: potassium phosphate buffer pH 7.0; 150 μmol.; NAD 1 μmol.; a given amount of enzyme preparation; and secondary alcohol 10 μmol. The reaction was started by the addition of substrate. One unit of enzyme activity represents the reduction of one μmole NAD per minute. Protein concentrations were determined by the Lowry method (J. Biol. Chem., 193: 255-275 (1951)).

[Ni+2] [nickel, reference compound]
% inhibition of SADH activity [1]: 20%

[N-]=[N+]=[N-] [Sodium azide, reference compound]
% inhibition of SADH activity [1]: 10%

CCC(C)=O [2-Butanone, 2-butanone]
inhibition of SADH activity (in words) ([1]; purified SADH): inhibited | product inhibition of 2-butanone production ([2]; exogenously supplied 2-butanone (8 μmoles) with viable cell suspensions): No product (2-butanone) inhibition; also recorded: did not inhibit

O=C(O)CI [iodoacetic acid, reference compound]
inhibition of SADH activity (in words) [1]: not inhibited

O=[N+]([O-])[O-].[Ag+] [silver nitrate, reference compound]
inhibition of secondary alcohol dehydrogenase activity (in words) [3]: inhibited

C=CC [propylene]
inhibition of conversion of n-alkanes to sec. alcohols (in words) [4]: inhibited | inhibition of conversion of n-alkanes to sec. alcohols (in words) ([4]; listed as Propylene): inhibit

CCC(O)CO (stereo not drawn) [butane 1,2-diol]
substrate specificity of purified yeast secondary alcohol dehydrogenase (in words) ([3]; spectrophotometric): not oxidized | substrate specificity of purified SADH (in words) [1]: not oxidized

NC(N)=S [Thiourea, reference compound]
% inhibition of SADH activity [1]: 0% | inhibition of SADH activity (in words) ([1]; purified SADH): not inhibited | inhibition of conversion of n-alkanes to sec. alcohols (in words) [4]: inhibited | inhibition of production of 2-butanone from 2-butanol (in words) [2]: not inhibited

O=C(O)c1cc[c]([Hg+])cc1.[OH-] [p-hydroxymercuribenzoate, reference compound]
inhibition of secondary alcohol dehydrogenase activity (in words) [3]: strongly inhibited | % inhibition of SADH activity [1]: 100%

NC(=O)C1=CN([C@@H]2O[C@H](COP(=O)(O)OP(=O)(O)OC[C@H]3O[C@@H](n4cnc5c(N)ncnc54)[C@H](OP(=O)(O)O)[C@@H]3O)[C@@H](O)[C@H]2O)C=CC1 [NADPH, reduced nicotinamide adenine dinucleotide phosphate]
use as electron donor for hydroxylation of n-alkanes [4]: could also be utilized as an electron donor

[Mn+2] [Mn^++, reference compound]
% inhibition of SADH activity [1]: 0%

[Co+2] [Co^++, reference compound]
% inhibition of SADH activity [1]: 0%

CC [Ethane]
Conversion Rate to product Ethanol [5]: 1.3 μmoles/hr./mg./protein | Conversion Rate to product Ethanol [6]: 2.0 μmoles/hr./mg./protein

[Fe+2] [ferrous, reference compound]
% inhibition of SADH activity [1]: 50%

Oc1ccccc1 [phenol]
substrate specificity of purified SADH (in words) [1]: not oxidized

CC(O)CCO (stereo not drawn) [butane 1,3-diol]
substrate specificity of purified yeast secondary alcohol dehydrogenase (in words) ([3]; spectrophotometric): not oxidized | substrate specificity of purified SADH (in words) [1]: lower rate | relative percent rate of oxidation [1]: 2%

C [Methane]
Conversion Rate to product Methanol ([5]; […] phosphate buffer): 1.5 μmoles/hr./mg./protein | Conversion Rate to product Methanol [6]: 2.5 μmoles/hr./mg./protein

CCN1C(=O)C=CC1=O [N-ethylmalemide, N-ethylmaleimide, reference compound]
% inhibition of SADH activity [1]: 6% | inhibition of SADH activity (in words) ([1]; purified SADH): not inhibited

O=S(=O)([O-])[O-].[Cu+2] [cupric sulfate, reference compound]
inhibition of secondary alcohol dehydrogenase activity (in words) [3]: inhibited

CC=O [acetaldehyde]
substrate specificity of purified SADH (in words) [1]: lower rate | relative percent rate of oxidation [1]: 4%

[Zn+2] [Zn^++, reference compound]
stimulation of SADH activity by exogenous zinc [1]: did not stimulate | % inhibition of SADH activity [1]: 0%

N#C[S][Hg][S]C#N [mercuric thiocyanate, reference compound]
inhibition of secondary alcohol dehydrogenase activity (in words) [3]: inhibited

c1c[nH]cn1 [imidiazole, reference compound]
inhibition of secondary alcohol dehydrogenase activity (in words) [3]: strongly inhibited

Oc1cccc2cccnc12 [8-hydroxyquinoline]
inhibition of conversion of n-alkanes to sec. alcohols (in words) [4]: inhibited

CCCCCC(C)O (stereo not drawn) [2-heptanol]
substrate specificity of purified yeast secondary alcohol dehydrogenase (in words) ([3]; spectrophotometric): not oxidized | substrate specificity: rate of oxidation of secondary alcohols (in words) ([2]; cell suspensions of C1-utilizers): oxidized at a much slower rate

[Fe+3] [ferric, reference compound]
% inhibition of SADH activity [1]: 35%

CCCO [n-propanol]
substrate specificity of purified yeast secondary alcohol dehydrogenase (in words) [3]: not oxidized | inhibition of SADH activity (in words) [1]: did not inhibit

CCCCCCC(C)O (stereo not drawn) [2-octanol]
substrate specificity of purified yeast secondary alcohol dehydrogenase (in words) ([3]; spectrophotometric): not oxidized

CCO [ethanol]
substrate specificity of purified yeast secondary alcohol dehydrogenase (in words) [3]: not oxidized | inhibition of SADH activity (in words) [1]: did not inhibit

NC(=O)C1=CN([C@@H]2O[C@H](COP(=O)(O)OP(=O)(O)OC[C@H]3O[C@@H](n4cnc5c(N)ncnc54)[C@H](O)[C@@H]3O)[C@@H](O)[C@H]2O)C=CC1 [NADH, reduced nicotinamide adenine dinucleotide]
use as electron donor for hydroxylation of n-alkanes [4]: requires

O=C(O)c1cc(SSc2ccc([N+](=O)[O-])c(C(=O)O)c2)ccc1[N+](=O)[O-] [5,5'-dithiobis(2-nitrobenzoic acid), reference compound]
% inhibition of SADH activity [1]: 100% | inhibition of SADH activity (in words) ([1]; purified SADH): inhibited

O=C(O)CCC(=O)O [succinic acid]
substrate specificity of purified SADH (in words) [1]: not oxidized

c1ccc(-c2ccccn2)nc1 [α,α-bipyridyl, reference compound]
% inhibition of SADH activity [1]: 70% | inhibition of conversion of n-alkanes to sec. alcohols (in words) [4]: inhibited | inhibition of production of 2-butanone from 2-butanol (in words) [2]: inhibited

[Mg+2] [Mg^++, reference compound]
% inhibition of SADH activity [1]: 0%

CCCO [propanol]
substrate specificity of purified SADH (in words) [1]: lower rate | relative percent rate of oxidation [1]: 2%

NC(=O)C1=CN([C@@H]2O[C@H](COP(=O)(O)OP(=O)(O)OC[C@H]3O[C@@H](n4cnc5c(N)ncnc54)[C@H](OP(=O)(O)O)[C@@H]3O)[C@@H](O)[C@H]2O)C=CC1 [NAD(P)H]
effectiveness as cofactor for oxidation of 2-butanol [7]: not effective

CCCCCO [pentan-1-ol]
substrate specificity of purified yeast secondary alcohol dehydrogenase (in words) ([3]; spectrophotometric): not oxidized

CC(O)CO (stereo not drawn) [1,2-propandiol]
substrate specificity of purified yeast secondary alcohol dehydrogenase (in words) ([3]; spectrophotometric): not oxidized

OC1CCCCC1 [cyclohexanol]
substrate specificity of purified SADH (in words) [1]: lower rate | relative percent rate of oxidation [1]: 4%

CC(C)CO [isobutanol]
substrate specificity of purified SADH (in words) [1]: not oxidized

cytochrome c [reference compound]
ability to act as electron acceptor/carrier ([3]; purified enzyme): could not act as electron carrier

CO [methanol]
substrate specificity of purified yeast secondary alcohol dehydrogenase (in words) ([3]; spectrophotometric): not oxidized

c1cnc2c(c1)ccc1cccnc12 [1,10-phenanthroline, reference compound]
inhibition of secondary alcohol dehydrogenase activity (in words) [3]: strongly inhibited | % inhibition of SADH activity [1]: 95% | inhibition of conversion of n-alkanes to sec. alcohols (in words) [4]: inhibited | inhibition of production of 2-butanone from 2-butanol (in words) [2]: inhibited

[Cu+2] [cupric, reference compound]
% inhibition of SADH activity [1]: 25%

CC(O)C(C)O (stereo not drawn) [butane 2,3-diol]
substrate specificity of purified SADH (in words) [1]: lower rate | relative percent rate of oxidation [1]: 2.5%

NNC(N)=S [thiosemicarbazide]
inhibition of conversion of n-alkanes to sec. alcohols (in words) [4]: inhibited

CCCCO [butan-1-ol]
substrate specificity of purified yeast secondary alcohol dehydrogenase (in words) [3]: not oxidized

O=Cc1ccccc1 [benzaldehyde]
substrate specificity of purified SADH (in words) [1]: not oxidized

C=O [formaldehyde]
substrate specificity of purified SADH (in words) [1]: not oxidized
